Values of other authors as cited in patent publication US20140161813A1, “METHODS FOR THE DIAGNOSIS, TREATMENT AND MONITORING OF CANCER” (priority 2012, published 2014).

Columns and labels:
[1] = tested on: human tumor 60 cell line screen; conditions: colon, ovarian and breast carcinomas and central nervous system tumors
[2] = tested on: spontaneous tumors in dogs (thyroid carcinoma, malignant peripheral nerve sheath tumor, anal gland adenocarcinoma, spinal meningioma)

## nitrosylcobalamin [NO-Cbl]
[1]
  antigrowth effects, tumor types most responsive: colon, ovarian and breast carcinomas as well as central nervous system tumors were most responsive
[2]; case study in dogs with spontaneous tumors
  systemic or local toxicity: no evidence of systemic or local toxicity
[2]; extended follow-up, daily NO-Cbl treatment ranging in duration from 6 to 15 months
  dogs in which the tumor was completely eliminated: 3 of 4
[2]; remaining 1 of 4 dogs, daily NO-Cbl treatment over the course of 6 months
  decrease in tumor size: 77%
